Results taken from the NIST ThermoML archive (doi:10.1016/j.jct.2016.07.017).
± gives the expanded uncertainty stated by the source.

What was measured:
[1] = for viscosity / mass density: 101.33 kPa; for viscosity / mass density / surface tension liquid-gas: Liquid; for viscosity: Falling or rolling sphere viscometry; for mass density: Vibrating tube method; for surface tension liquid-gas: Ring tensiometer
[2] = activity coefficient (dimensionless); of the first substance listed, at infinite dilution; xn = mol fraction of the nth substance listed; settings: 101.33 kPa, Liquid, Chromatography, x1 = 0

CC[N+](C)(CC)CCOC.O=S(=O)([N-]S(=O)(=O)C(F)(F)F)C(F)(F)F
[1]
Settings	mass density [kg/m3]	surface tension liquid-gas [mN/m]	viscosity [mPa·s]
288.15 K	1416.6 ± 1.1	–	120.6 ± 4.1
298.15 K	1407.33 ± 1.1	33.6 ± 0.8	70.96 ± 1.7
308.15 K	1398.12 ± 1.1	32.6 ± 0.8	45.36 ± 1
318.15 K	1389 ± 1.1	32.1 ± 0.7	30.96 ± 0.68
328.15 K	1379.94 ± 1.1	31.6 ± 0.7	22.23 ± 0.49
338.15 K	1370.78 ± 1.1	31.3 ± 0.7	16.58 ± 0.36
348.15 K	1361.55 ± 1.1	–	12.79 ± 0.28
358.15 K	1352.39 ± 1.1	–	10.18 ± 0.22
368.15 K	1343.38 ± 1.1	–	8.19 ± 0.18

Settings	Glass transition temperature [°C]
[1], Glass, DSC	-93.7 ± 0.8

Cc1ccccc1 [toluene] + CC[N+](C)(CC)CCOC.O=S(=O)([N-]S(=O)(=O)C(F)(F)F)C(F)(F)F
[2]
Settings	activity coefficient
318.15 K	1.47 ± 0.12
328.15 K	1.48 ± 0.13
338.15 K	1.5 ± 0.13
348.15 K	1.52 ± 0.13
358.15 K	1.53 ± 0.13

O [water] + CC[N+](C)(CC)CCOC.O=S(=O)([N-]S(=O)(=O)C(F)(F)F)C(F)(F)F
[2]
Settings	activity coefficient
318.15 K	1.9 ± 0.16
328.15 K	1.73 ± 0.15
338.15 K	1.6 ± 0.14
348.15 K	1.46 ± 0.12
358.15 K	1.32 ± 0.11
